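Following 48 hours of exposure in 96-well plates, responses at five concentrations were used to interpolate endpoints linearly. Abbreviation: GI50, concentration required for 50% inhibition of growth. Definition used: TGI = concentration required for complete inhibition of growth.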
How the values were obtained:
Experiment in all cases: NCI-60 cell line screen, 48 h
[1] = test system: 786-0 renal
[2] = test system: CAKI-1 renal
[3] = test system: SF-268 CNS
[4] = test system: A498 renal
[5] = test system: HCC-2998 colon
[6] = test system: UO-31 renal
[7] = test system: T-47D breast
[8] = test system: PC-3 prostate
[9] = test system: IGROV1 ovarian
[10] = test system: RPMI-8226 leukemia
[11] = test system: HS 578T breast
[12] = test system: SNB-75 CNS
[13] = test system: MCF7 breast
[14] = test system: SF-539 CNS
[15] = test system: SF-295 CNS
[16] = test system: SR leukemia
[17] = test system: K-562 leukemia
[18] = test system: SK-OV-3 ovarian
[19] = test system: NCI-H23 lung
[20] = test system: KM12 colon
[21] = test system: CCRF-CEM leukemia
[22] = test system: TK-10 renal
[23] = test system: MDA-MB-435
[24] = test system: OVCAR-5 ovarian
[25] = test system: OVCAR-3 ovarian
[26] = test system: HCT-116 colon
[27] = test system: HL-60(TB) leukemia
[28] = test system: UACC-257 melanoma
[29] = test system: UACC-62 melanoma
[30] = test system: RXF 393 renal
[31] = test system: NCI-H460 lung
[32] = test system: NCI-H226 lung
[33] = test system: NCI-H522 lung
[34] = test system: COLO 205 colon
[35] = test system: M14 melanoma
[36] = test system: SK-MEL-5 melanoma
[37] = test system: BT-549 breast
[38] = test system: ACHN renal
[39] = test system: NCI/ADR-RES ovarian
[40] = test system: HT29 colon
[41] = test system: HOP-62 NSCLC
[42] = test system: MDA-MB-231 breast
[43] = test system: DU-145 prostate
[44] = test system: MOLT-4 leukemia
[45] = test system: SNB-19 CNS
[46] = test system: SW-620 colon
[47] = test system: SN12C renal
[48] = test system: OVCAR-8 ovarian
[49] = test system: MALME-3M melanoma
[50] = test system: HCT-15 colon
[51] = test system: SK-MEL-28 melanoma
[52] = test system: A549 NSCLC
[53] = test system: OVCAR-4 ovarian

COc1cc(/C=C/C(=O)c2ccccc2)cc(OC)c1OC
GI50 [1]: 2.74 µM | TGI [1]: 7.36 µM | GI50 [2]: 5.61 µM | TGI [2]: 19.9 µM | GI50 [3]: 4.2 µM | TGI [3]: 17.5 µM | GI50 [4]: 12.3 µM | TGI [4]: 25.3 µM | GI50 [5]: 12.3 µM | TGI [5]: 25.6 µM | GI50 [6]: 1.86 µM | TGI [6]: 3.78 µM | GI50 [7]: 3.93 µM | TGI [7]: 20.9 µM | GI50 [8]: 4.54 µM | TGI [8]: 17.9 µM | GI50 [9]: 4.04 µM | TGI [9]: 14.2 µM | GI50 [10]: 2.38 µM | TGI [10]: 6.29 µM | GI50 [11]: 4.62 µM | TGI [11]: 39.8 µM | GI50 [12]: 10.2 µM | TGI [12]: 22.2 µM | GI50 [13]: 0.398 µM | TGI [13]: 10.3 µM | GI50 [14]: 2.96 µM | TGI [14]: 10.1 µM | GI50 [15]: 10.3 µM | TGI [15]: 24.2 µM | GI50 [16]: 2.33 µM | TGI [16]: 6.68 µM | GI50 [17]: 3.23 µM | TGI [17]: 10.7 µM | GI50 [18]: 4.42 µM | TGI [18]: 13.8 µM | GI50 [19]: 7.45 µM | TGI [19]: 23.3 µM | GI50 [20]: 3.22 µM | TGI [20]: 10.2 µM | GI50 [21]: 1.49 µM | TGI [21]: 5.89 µM | GI50 [22]: 10.2 µM | TGI [22]: 22.2 µM | GI50 [23]: 3.06 µM | TGI [23]: 11.3 µM | GI50 [24]: 3.95 µM | TGI [24]: 16.6 µM | GI50 [25]: 4.02 µM | TGI [25]: 12.9 µM | GI50 [26]: 1.98 µM | TGI [26]: 4.07 µM | GI50 [27]: 2.56 µM | TGI [27]: 6.82 µM | GI50 [28]: 3.7 µM | TGI [28]: 15 µM | GI50 [29]: 2.23 µM | TGI [29]: 5.7 µM | GI50 [30]: 3.11 µM | TGI [30]: 11.5 µM | GI50 [31]: 2.25 µM | TGI [31]: 5.91 µM | GI50 [32]: 2.96 µM | TGI [32]: 14.3 µM | GI50 [33]: 1.95 µM | TGI [33]: 3.88 µM | GI50 [34]: 9.32 µM | TGI [34]: 21.7 µM | GI50 [35]: 3.27 µM | TGI [35]: 11.6 µM | GI50 [36]: 4.12 µM | TGI [36]: 15 µM | GI50 [37]: 3.79 µM | TGI [37]: 11.2 µM | GI50 [38]: 2.31 µM | TGI [38]: 6.29 µM | GI50 [39]: 3.38 µM | TGI [39]: 15 µM | GI50 [40]: 2.47 µM | TGI [40]: 5.37 µM | GI50 [41]: 6.06 µM | TGI [41]: 19.7 µM | GI50 [42]: 5.61 µM | TGI [42]: 20 µM | GI50 [43]: 4.92 µM | TGI [43]: 16.4 µM | GI50 [44]: 2.94 µM | TGI [44]: 8.13 µM | GI50 [45]: 12.8 µM | TGI [45]: 26.8 µM | GI50 [46]: 2.48 µM | TGI [46]: 7.2 µM | GI50 [47]: 2.94 µM | TGI [47]: 10.9 µM | GI50 [48]: 2.95 µM | TGI [48]: 11.8 µM | GI50 [49]: 4.83 µM | TGI [49]: 19.7 µM | GI50 [50]: 1.99 µM | TGI [50]: 5.26 µM | GI50 [51]: 2.29 µM | TGI [51]: 5.75 µM | GI50 [52]: 6.14 µM | TGI [52]: 23 µM | GI50 [53]: 4.53 µM | TGI [53]: 19.4 µM

Reference: PubChem BioAssay (NCI)
